# Data: publication PMC12866788, “Alternative Pathway for Methyl Supply through the Coupling of SHMT1 and PEMT to Maintain Astrocytic Homeostasis in Parkinson's Disease” (Advanced Science, 2025)
# Target: T1, SHMT1-PEMT complex (Mus musculus, UniProt P50431+Q61907)
# T1 construct: native SHMT1-PEMT complex, co-immunoprecipitate / NP-40 lysate of mouse primary astrocytes; full length, untagged; direct SHMT1-PEMT contact not proven
# T1 sequence (P50431 1-478): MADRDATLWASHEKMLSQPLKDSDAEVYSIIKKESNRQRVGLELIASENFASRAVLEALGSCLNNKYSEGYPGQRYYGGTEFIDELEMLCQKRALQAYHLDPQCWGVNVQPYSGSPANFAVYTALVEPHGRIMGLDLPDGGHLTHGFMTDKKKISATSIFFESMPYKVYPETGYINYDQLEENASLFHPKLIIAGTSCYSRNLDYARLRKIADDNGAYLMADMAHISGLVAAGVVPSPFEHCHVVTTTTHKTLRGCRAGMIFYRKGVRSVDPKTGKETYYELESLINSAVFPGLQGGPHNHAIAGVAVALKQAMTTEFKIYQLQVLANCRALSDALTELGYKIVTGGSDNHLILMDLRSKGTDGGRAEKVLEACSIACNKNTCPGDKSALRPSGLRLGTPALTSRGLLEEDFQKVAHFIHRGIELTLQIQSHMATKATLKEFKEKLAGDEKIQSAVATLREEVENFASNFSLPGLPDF
# T1 sequence (Q61907 1-199): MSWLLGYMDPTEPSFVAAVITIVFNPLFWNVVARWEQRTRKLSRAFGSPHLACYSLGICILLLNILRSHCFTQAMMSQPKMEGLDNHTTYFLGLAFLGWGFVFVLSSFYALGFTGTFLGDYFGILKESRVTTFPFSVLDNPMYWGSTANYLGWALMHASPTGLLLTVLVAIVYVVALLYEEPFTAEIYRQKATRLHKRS
# Test: CETSA and DARTS of co-IP samples, Western blot
# Type: biochemical
# Details: 10 µM isoorientin; astrocytes with MPP+ 24 h; heating at 37-67 °C 3 min; protease K digestion 1:400-1:3200; either chain may hold the compound
structure (smiles),measurement,value
"O=c1cc(-c2ccc(O)c(O)c2)oc2cc(O)c([C@@H]3O[C@H](CO)[C@@H](O)[C@H](O)[C@H]3O)c(O)c12 [TMA0698, Isoorientin]","CETSA and DARTS of co-IP samples, Western blot",we found that Iso significantly promoted SHMT1 and PEMT protein stability
